From patent US20230089267A1, “Compositions and Methods For Reducing Immune Intolerance and Treating Autoimmune Disorders” (Lapix Therapeutics, Inc., priority 2021, published 2023)
Structures can show the parent of a compound that is named as a salt. Blank lines part the entries; values can stand above or below the compound they belong to.

Assays:
[1] = system: FoxP3+/CD4+ T-cells in splenocytes from naïve C57BL/6 mice; experiment: In vitro dose-response, percent FoxP3+/CD4+ T-cells in murine splenocytes; assay type: cell-based; conditions: for EC50 / EC90: Mus musculus, T-cell, percent FoxP3+/CD4+ T-cells, 72 hours, 4-parameter log-logistic model fit; for mean FoxP3+/CD4+ T-cells, upper plateau, mean (SEM): high dose; for mean FoxP3+/CD4+ T-cells, upper plateau, mean (SEM) / mean FoxP3+/CD4+ T-cells, lower plateau, mean (SEM): from model fitting; for mean FoxP3+/CD4+ T-cells, lower plateau, mean (SEM): low dose
Procedure: All animal studies were conducted under IACUC number B2020-91 and in compliance with Tufts University/Tufts Medical Center & Human Nutrition Research Center on Aging. Animals were housed four in a cage and had access to food and water ad libitum. Anti-FoxP3 and anti-CD4 for flow cytometry were obtained from eBioscience. Compounds 1-3 were formulated with 10% DMPC in PBS. PS liposomes were synthesized at a 30:70 PS:lipid molar ratio.
Splenocytes from naïve C57BL/6 mice were stained with CFSE, seeded at 2×10^5 cells/well, and dosed with each compound from 1e^−4 μM to 3.0e^−9 μM using a log 2 dilution scheme. Cells were incubated for 72 hours before phenotyping for FoxP3+/CD4+ T-cells. Flow cytometer analysis was performed to assess changes in percent FoxP3+/CD4+ T-cells as a function of compound and dose. Concentration versus response was fitted to a 4-parameter, log-logistic model using the “dre” package in “R”. Both EC50 and EC90 were obtained by model fitting.
Cells were observed via a microscope at the end of the incubation period. All cells looked healthy and suitable for flow cytometry analysis.
Table 2 summarizes EC50 and EC90 values obtained from the model fitting.

[2] = system: MOG35-55-induced murine EAE model; experiment: MOG35-55-induced murine EAE model, Compound 2 versus Compound 8 (Example 12); assay type: in vivo, mice; conditions: 3 μg/mouse/day SC, after ten days of treatment
Procedure: Mice were immunized with 100 μg MOG35-55 emulsified with CFA and pertussis toxin, as described in Example 4. At disease onset (clinical score 1), mice were randomized into two treatment groups, and received 3 μg/mouse/day SC of either Compound 2 or Compound 8.

passive MG model = experiment: Passive myasthenia gravis model, adoptive transfer to RAG2−/− mice; assay type: in vivo; conditions: by day 10, SC daily for ten days
Procedure: In this passive MG model in B6 mice, donor mice (n=20, aged 6-8 weeks) were immunized with complete Freund's adjuvant (CFA) and nicotinic acetylcholine receptor (AChR) emulsion weekly for four weeks. Seven days after the last immunization, splenocytes were collected, and 10^6 cells/mouse were transferred to RAG2^−/− mice. The recipient mice (n=10/group) were treated one day after adoptive transfer with prednisone (1 μg/mouse) SC daily for ten days after disease onset or Compound 2 3 μg SC daily for ten days after disease onset, or were left untreated. Minimal manifestation of disease was defined as a return to a clinical score of 1 after an exacerbation (score 2 or higher). Time to return to minimal score was logged, and the likelihood of return was plotted for untreated animals, and standard of care (SOC; prednisone)- and Compound 2-treated animals.

[3] = system: MOG35-55-induced murine EAE model; experiment: Escalation treatment paradigm in MOG35-55-induced murine EAE model (Example 8); assay type: in vivo, mice
Procedure: Compound 2 (0.03 mg/ml) was formulated with hydroxypropyl beta cyclodextrin (HPCD) 1:80 (Compound 2:HPCD) and stored at 4° C. until use. Natalizumab, an anti-α4β1 integrin antibody is a monoclonal antibody that is approved by U.S. Food and Drug Administration (FDA) for the treatment of relapsing forms of MS. […] Natalizumab was diluted in PBS to a final concentration of 15 mg/ml before dosing. DMF is a disease-modifying therapy (DMT) recommended for the treatment of active relapsing multiple sclerosis. DMF (1 g) was dissolved in 50 ml of 4% solution of METHOCEL© to give a 20 mg/ml solution of DMF. The solution was stored at 4° C. until use.
Experimental autoimmune (allergic) encephalomyelitis (EAE) is considered to be the best non-clinical model of multiple sclerosis (MS). Over 6,000 papers have been published in scientific journals on this model. EAE is characterized by immune responses against CNS tissue and can be induced in animals by immunizing them against proteins of the CNS. In the active EAE model, mice are immunized with MOG35-55 peptide emulsified in Complete Freund's Adjuvant (CFA) by subcutaneous injection at the tail base (100 μg of […] per mouse) under anesthesia. On the day of injection (Day 0) and two days later (Day 2), mice receive an intraperitoneal injection of pertussis toxin (PT) in PBS at 200 ng/mouse/dose (0.1 mL). Symptoms typically develop in mice 9-14 days after immunization (Day 0). Daily observation and scoring of mice start on Day 7 and continue until the end of the study. Table 5 (see Example 4 above) details the expected clinical symptoms and the scoring criteria used in this study.
This study was designed to evaluate the early sustained use of Compound 2 versus DMF in a treatment escalation paradigm (sustained use cohort), and Compound 2 versus natalizumab after DMF failure (escalation cohort). All animals in the escalation cohorts received 14 doses of DMF or Compound 2, or 3 doses of natalizumab, as per group assignment.
Probability of disease control: Disease control was defined as a clinical score of less than 2.5. Animals in the different treatment groups were monitored after the 3:1:1 randomization. A score of 2.5 was recorded as an event and analyzed by survival analysis in GraphPad Prism 9. Animals not reaching a clinical score of 2.5 by day 14, the end of the treatment period, were assigned a score of zero for the survival analysis.
Efficacy of Compound 2 versus DMF in early sustained use: Animals in the DMF group that reached a score of 2.5 were randomized 1:1:1, as per FIG. 5A. Animals randomized to continue DMF treatment were given the remainder of the 14 DMF doses. Animals from the first randomization that were treated with Compound 2 after disease onset continued treatment for a total of 14 doses. After the 14th dose, treatment was stopped and clinical score and overall survival were monitored.
Efficacy of Compound 2 versus natalizumab in a treatment escalation cohort: Animals in the DMF group that reached a score of 2.5 were randomized 1:1:1, as per FIG. 5A. Animals randomized to natalizumab were dosed 100 μg/mouse IV every 3 days for 3 total doses starting the same day a score of 2.5 was recorded. Animals randomized to Compound 2 were dosed with 3 μg/mouse SC QD for 14 total doses starting on the same day a score of 2.5 was recorded.
Overall survival: Death due to the disease was monitored in the early sustained use cohort as well as the escalation cohort. Death by disease (clinical score of 5) was recorded as an event “1,” death due to ulceration or for ex vivo analysis was recorded as “0.” Animals surviving until the end of the study were recorded “0” on day 27. Survival analysis was done in GraphPad Prism 9.

[4] = system: MOG35-55-induced murine EAE model; experiment: Induction/maintenance treatment paradigm in MOG35-55-induced murine EAE model (Example 9); assay type: in vivo, mice
Procedure: Compound 2, natalizumab and DMF were prepared as described in Example 8. Table 5 (see Example 4) details the expected clinical symptoms and scoring criteria used in this study.
This study was designed to evaluate the therapeutic effects of Compound 2 versus natalizumab in a treatment induction/maintenance paradigm (induction cohort), and Compound 2 versus DMF after natalizumab (maintenance cohort). In the induction cohorts, animals were randomized 2:1:1 natalizumab:Compound 2:control when they reached a score of 2.5, as per FIG. 6A. Animals in the natalizumab cohort were given 100 μg natalizumab/mouse every 3 days for 3 doses before being randomized to the maintenance cohort. Animals randomized into the maintenance cohort after natalizumab received maintenance doses of DMF or Compound 2 (1:1 randomization), as per their group assignment for 14 days. Animals in the Compound 2 induction cohort were dosed with 30 μg Compound 2/mouse SC QD for a maximum of 7 days, or 3 consecutive days of disease score <2.5, at which time they were placed on a maintenance dose of 3 μg/mouse SC QD for 14 days. All animals in all groups were monitored for 14 days after the last dose for disease score and survival.
Disease control (induction therapy): Disease control was defined as maintaining a clinical score of 2.5 or less after randomization. Animals in the different treatment groups were monitored after the 2:1:1 randomization. Clinical scores were recorded daily for all animals and plotted over time. A score of >2.5 was recorded as an event and analyzed by survival analysis in GraphPad Prism 9. Animals not reaching a clinical score of 2.5 by the end of the induction period (day 7) were assigned a score of zero for the survival analysis.
Survival (induction therapy): Death due to disease (clinical score 5) during the treatment induction period was recorded as an event “1”, animals surviving until the end of the induction period, day 7 after randomization, were censored on day 7 for the purposes of survival analysis.
Disease control (maintenance therapy): At the end of the induction period with natalizumab, animals were randomized 1:1 to the DMF maintenance group or Compound 2 maintenance group as per FIG. 6A. Animals were dosed for 14 days, and clinical scores were monitored daily.
Survival (maintenance therapy): Death by disease (clinical score of 5) was recorded as an event “1”, death due to ulceration or ex vivo analysis was recorded as “0”. Animals surviving until the end of the study were recorded as “0” on the last day of the study. Survival analysis was done in GraphPad Prism 9.

[5] = escalation cohort after DMF failure (score 2.5), by day 14 after switching
[6] = maintenance after natalizumab induction

EC50 [1]: 0.133 nM
EC90 [1]: 0.314 nM
Compound: CCCCCC(=O)O[C@@H](COC(C)=O)CO[PH](=O)OC[C@H](N)C(=O)O (stereo partly shown) [PS, phosphatidylserine, reference compound]

EC50 [1]: 2.06 nM
EC90 [1]: 688 nM
Compound: N[C@@H](CNC(=O)Cc1ccc(OCc2ccccc2)cc1)C(=O)O [Compound 1, (S)-2-amino-3-(2-(4-(benzyloxy)phenyl)acetamido)propanoic acid]
mean FoxP3+/CD4+ T-cells, upper plateau, mean (SEM) [1]: 5.18%
mean FoxP3+/CD4+ T-cells, lower plateau, mean (SEM) [1]: 1.47%

Compound: N[C@@H](CNC(=O)Cc1ccc(OCc2cccc3ccccc23)cn1)C(=O)O [Compound 8, (S)-2-Amino-3-(2-(5-(naphthalen-1-ylmethoxy)pyridin-2-yl)acetamido)propanoic acid]
mean clinical score, comparison of the two groups [2]: no statistical difference

Compound: C[C@]12C=CC(=O)C=C1CC[C@@H]1[C@@H]2C(=O)C[C@@]2(C)[C@H]1CC[C@]2(O)C(=O)CO [prednisone, reference compound]
animals returned to minimal manifestation of disease (score 1) (passive MG model): 46%

Compound: natalizumab: anti-α4β1 integrin monoclonal antibody approved by FDA for the treatment of relapsing forms of MS [reference compound]
mean clinical score after switching from DMF [3, 5]: 3.6 (SD=1.6)
median clinical score after switching from DMF [3, 5]: 3.75
animals that survived until day 27, escalation cohort ([3]; switched from DMF): 6 out of 9
mice showing clinical score improvement and switched to maintenance before end of induction period ([4]; induction period): 0/18
animals that survived the treatment induction period ([4]; induction period, day 7 after randomization): 11/18
mice that died before completing the induction therapy ([4]; induction therapy): 38.8%
mean clinical score by day 7 of induction ([4]; randomized at score 2.5, Compound 2 30 μg SC): 3.61 (SD=1.17)
animals that progressed to a clinical score >2.5 during induction ([4]; randomized at score 2.5, natalizumab 100 μg/mouse every 3 days, Compound 2 30 μg SC): 12

Compound: COC(=O)/C=C/C(=O)OC [DMF, dimethyl fumarate, reference compound]
disease course in early sustained use cohort ([3]; 14 doses, followed to end of study): progressed at the same rate as untreated control animals, with all animals reaching a clinical score of 5 by end of the study
overall survival, early sustained use cohort ([3]; to day 27): all animals in the DMF-treated group died by day 26
animals that progressed to a score of 2.5 ([3]; treatment from disease onset (score 1), within 7 days of disease onset): All animals (n=30)
mean clinical score of animals randomized to maintenance therapy after natalizumab induction ([4]; at start of maintenance): 2.5 (SD=0.4)
animals that progressed to clinical score 5 (death by disease) [4, 6]: 3 out of 4
last measured score, day 7 after initiation of maintenance [4, 6]: 4.37 (SD=1.2)
mortality rate in maintenance cohort ([4]; maintenance after natalizumab induction, n=4 in each group): 75%

EC50 [1]: 3.76 nM
EC90 [1]: 20.4 nM
Compound: N[C@@H](CNC(=O)Cc1ccc(OC(c2ccccc2)c2ccccc2)cc1)C(=O)O [Compound 3, (S)-2-amino-3-(2-(4-(benzhydryloxy)phenyl)acetamido)propanoic acid]
potency relative to PS, as measured by EC50 and EC90 ([1]; EC50 and EC90, respectively): two and one orders of magnitude higher (more potent) than PS
mean FoxP3+/CD4+ T-cells, upper plateau, mean (SEM) [1]: 3.48%
mean FoxP3+/CD4+ T-cells, lower plateau, mean (SEM) [1]: 1.32%
